Experimental data reported in patent publication US10233222B2, “Methods, compositions, diagnostics and assays for the treatment of Alzheimer's disease” (priority 2014, dated 2019).

Target: T1, Aβ42-SYP interaction (Homo sapiens, UniProt P08247)
T1 construct: His6; made in house; host or cells: insect cells (SYP)
Experiment: SPR binding of Aβ42 to SYP in the presence of cholesterol hemisuccinate
Conditions: increasing concentrations of cholesterol hemisuccinate
Protocol: Surface Plasmon Resonance: Binding studies were performed on a Biacore 3000 or a BiOptix 404 pi, with similar results. For the Biacore, a CMS chip was used and for the BiOptix instrument, a CMV150 chip was employed. […] Recombinant human SYP, containing a His(6)-tag expressed in insect cells, was a gift of J. Mapes and A. DeFazio at CU Boulder. Bovine serum albumin (Sigma, St. Louis, Mo.), Interleukin 1 receptor antagonist (gift of Synergen, Inc., Boulder, Colo.), and SLC35F1 (gift of G. Chang, UCSD) were used as control proteins. Binding at a flow rate of 20 μl/min was in 0.15M sodium chloride, 0.03M sodium HEPES, pH 7.4, 0.009% Fos-choline 14 (Anatrace, Santa Clara, Calif.) for all samples.
We therefore asked if cholesterol inhibits the Aβ42-SYP interaction.

T1 sequence (P08247 whole entry): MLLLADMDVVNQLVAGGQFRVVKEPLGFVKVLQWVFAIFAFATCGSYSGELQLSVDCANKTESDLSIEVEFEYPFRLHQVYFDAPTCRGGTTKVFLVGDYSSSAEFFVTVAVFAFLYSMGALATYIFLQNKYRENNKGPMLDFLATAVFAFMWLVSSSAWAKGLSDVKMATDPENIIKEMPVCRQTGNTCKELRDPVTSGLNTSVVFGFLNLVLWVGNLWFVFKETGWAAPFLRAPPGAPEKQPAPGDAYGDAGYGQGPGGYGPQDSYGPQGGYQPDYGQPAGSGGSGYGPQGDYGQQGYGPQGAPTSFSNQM

cholesterol hemisuccinate
inhibition of binding of Aβ42 to SYP: robust concentration dependent inhibition of binding
